#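 Results reflect a 48-hour exposure of cells in 96-well plates to compound at five concentrations. GI50 marks 50% less growth. TGI denotes the concentration required for complete inhibition of growth.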
# Experiments:
# Test in all cases: growth of human tumour cells (NCI), 48 h
# NCI/ADR-RES ovarian = system: NCI/ADR-RES ovarian
# HL-60(TB) leukemia = system: HL-60(TB) leukemia
# LOX IMVI melanoma = system: LOX IMVI melanoma
# MDA-MB-231 breast = system: MDA-MB-231 breast
# OVCAR-5 ovarian = system: OVCAR-5 ovarian
# 786-0 renal = system: 786-0 renal
# CCRF-CEM leukemia = system: CCRF-CEM leukemia
# HCC-2998 colon = system: HCC-2998 colon
# HCT-116 colon = system: HCT-116 colon
# SR leukemia = system: SR leukemia
# T-47D breast = system: T-47D breast
# A549 NSCLC = system: A549 NSCLC
# UACC-257 melanoma = system: UACC-257 melanoma
# RPMI-8226 leukemia = system: RPMI-8226 leukemia
# PC-3 prostate = system: PC-3 prostate
# MCF7 breast = system: MCF7 breast
# A498 renal = system: A498 renal
# SNB-19 CNS = system: SNB-19 CNS
# HS 578T breast = system: HS 578T breast
# SW-620 colon = system: SW-620 colon
# OVCAR-3 ovarian = system: OVCAR-3 ovarian
# NCI-H226 lung = system: NCI-H226 lung
# SK-MEL-28 melanoma = system: SK-MEL-28 melanoma
# EKVX NSCLC = system: EKVX NSCLC
# M14 melanoma = system: M14 melanoma
# NCI-H522 lung = system: NCI-H522 lung
# IGROV1 ovarian = system: IGROV1 ovarian
# COLO 205 colon = system: COLO 205 colon
# OVCAR-4 ovarian = system: OVCAR-4 ovarian
# NCI-H23 lung = system: NCI-H23 lung
# ACHN renal = system: ACHN renal
# OVCAR-8 ovarian = system: OVCAR-8 ovarian
# NCI-H460 lung = system: NCI-H460 lung
# SK-MEL-2 melanoma = system: SK-MEL-2 melanoma
# SF-539 CNS = system: SF-539 CNS
# TK-10 renal = system: TK-10 renal
# SK-MEL-5 melanoma = system: SK-MEL-5 melanoma
# HT29 colon = system: HT29 colon
# HOP-92 NSCLC = system: HOP-92 NSCLC
# UACC-62 melanoma = system: UACC-62 melanoma
# UO-31 renal = system: UO-31 renal
# U251 CNS = system: U251 CNS
# SF-268 CNS = system: SF-268 CNS
# K-562 leukemia = system: K-562 leukemia
# SK-OV-3 ovarian = system: SK-OV-3 ovarian
# SNB-75 CNS = system: SNB-75 CNS
# MOLT-4 leukemia = system: MOLT-4 leukemia
# MDA-MB-435 = system: MDA-MB-435
# HOP-62 NSCLC = system: HOP-62 NSCLC
# KM12 colon = system: KM12 colon
# HCT-15 colon = system: HCT-15 colon
# DU-145 prostate = system: DU-145 prostate
# BT-549 breast = system: BT-549 breast
# SF-295 CNS = system: SF-295 CNS
# CAKI-1 renal = system: CAKI-1 renal
# SN12C renal = system: SN12C renal
compound,measurement,setting,value
CCN1C(=O)N(CC)C2SC(N/N=C/c3ccccc3F)=NC21 (configuration not stated),GI50,NCI/ADR-RES ovarian,312 nM
same,TGI,NCI/ADR-RES ovarian,> 65900 nM
same,GI50,HL-60(TB) leukemia,199 nM
same,TGI,HL-60(TB) leukemia,633 nM
same,GI50,LOX IMVI melanoma,556 nM
same,TGI,LOX IMVI melanoma,> 100000 nM
same,GI50,MDA-MB-231 breast,635 nM
same,TGI,MDA-MB-231 breast,> 100000 nM
same,GI50,OVCAR-5 ovarian,517 nM
same,TGI,OVCAR-5 ovarian,> 100000 nM
same,GI50,786-0 renal,657 nM
same,TGI,786-0 renal,> 86100 nM
same,GI50,CCRF-CEM leukemia,364 nM
same,TGI,CCRF-CEM leukemia,> 100000 nM
same,GI50,HCC-2998 colon,414 nM
same,TGI,HCC-2998 colon,27000 nM
same,GI50,HCT-116 colon,369 nM
same,TGI,HCT-116 colon,> 100000 nM
same,GI50,SR leukemia,165 nM
same,TGI,SR leukemia,> 100000 nM
same,GI50,T-47D breast,557 nM
same,TGI,T-47D breast,> 100000 nM
same,GI50,A549 NSCLC,526 nM
same,TGI,A549 NSCLC,> 100000 nM
same,GI50,UACC-257 melanoma,2170 nM
same,TGI,UACC-257 melanoma,> 64400 nM
same,GI50,RPMI-8226 leukemia,355 nM
same,TGI,RPMI-8226 leukemia,> 100000 nM
same,GI50,PC-3 prostate,347 nM
same,TGI,PC-3 prostate,> 100000 nM
same,GI50,MCF7 breast,267 nM
same,TGI,MCF7 breast,> 100000 nM
same,GI50,A498 renal,204 nM
same,TGI,A498 renal,836 nM
same,GI50,SNB-19 CNS,430 nM
same,TGI,SNB-19 CNS,> 100000 nM
same,GI50,HS 578T breast,299 nM
same,TGI,HS 578T breast,> 100000 nM
same,GI50,SW-620 colon,372 nM
same,TGI,SW-620 colon,> 100000 nM
same,GI50,OVCAR-3 ovarian,330 nM
same,TGI,OVCAR-3 ovarian,> 100000 nM
same,GI50,NCI-H226 lung,1960 nM
same,TGI,NCI-H226 lung,> 100000 nM
same,GI50,SK-MEL-28 melanoma,5620 nM
same,TGI,SK-MEL-28 melanoma,> 100000 nM
same,GI50,EKVX NSCLC,570 nM
same,TGI,EKVX NSCLC,> 100000 nM
same,GI50,M14 melanoma,206 nM
same,TGI,M14 melanoma,610 nM
same,GI50,NCI-H522 lung,172 nM
same,TGI,NCI-H522 lung,527 nM
same,GI50,IGROV1 ovarian,599 nM
same,TGI,IGROV1 ovarian,> 100000 nM
same,GI50,COLO 205 colon,298 nM
same,TGI,COLO 205 colon,1480 nM
same,GI50,OVCAR-4 ovarian,> 58300 nM
same,TGI,OVCAR-4 ovarian,> 100000 nM
same,GI50,NCI-H23 lung,467 nM
same,TGI,NCI-H23 lung,> 100000 nM
same,GI50,ACHN renal,864 nM
same,TGI,ACHN renal,> 100000 nM
same,GI50,OVCAR-8 ovarian,425 nM
same,GI50,NCI-H460 lung,353 nM
same,TGI,NCI-H460 lung,> 100000 nM
same,GI50,SK-MEL-2 melanoma,326 nM
same,TGI,SK-MEL-2 melanoma,> 100000 nM
same,GI50,SF-539 CNS,238 nM
same,TGI,SF-539 CNS,772 nM
same,TGI,TK-10 renal,> 100000 nM
same,GI50,SK-MEL-5 melanoma,603 nM
same,TGI,SK-MEL-5 melanoma,20700 nM
same,GI50,HT29 colon,323 nM
same,TGI,HT29 colon,> 100000 nM
same,GI50,HOP-92 NSCLC,1280 nM
same,TGI,HOP-92 NSCLC,> 25800 nM
same,GI50,UACC-62 melanoma,295 nM
same,TGI,UACC-62 melanoma,> 100000 nM
same,GI50,UO-31 renal,643 nM
same,TGI,UO-31 renal,> 100000 nM
same,GI50,U251 CNS,342 nM
same,TGI,U251 CNS,> 39200 nM
same,GI50,SF-268 CNS,4170 nM
same,TGI,SF-268 CNS,> 100000 nM
same,GI50,K-562 leukemia,194 nM
same,TGI,K-562 leukemia,> 100000 nM
same,GI50,SK-OV-3 ovarian,569 nM
same,TGI,SK-OV-3 ovarian,> 100000 nM
same,GI50,SNB-75 CNS,207 nM
same,TGI,SNB-75 CNS,> 73000 nM
same,GI50,MOLT-4 leukemia,507 nM
same,TGI,MOLT-4 leukemia,> 100000 nM
same,GI50,MDA-MB-435,75.1 nM
same,TGI,MDA-MB-435,274 nM
same,GI50,HOP-62 NSCLC,474 nM
same,TGI,HOP-62 NSCLC,> 100000 nM
same,GI50,KM12 colon,383 nM
same,TGI,KM12 colon,> 54800 nM
same,GI50,HCT-15 colon,344 nM
same,TGI,HCT-15 colon,> 100000 nM
same,GI50,DU-145 prostate,462 nM
same,TGI,DU-145 prostate,> 100000 nM
same,GI50,BT-549 breast,298 nM
same,TGI,BT-549 breast,1590 nM
same,GI50,SF-295 CNS,293 nM
same,TGI,SF-295 CNS,> 100000 nM
same,GI50,CAKI-1 renal,353 nM
same,TGI,CAKI-1 renal,> 100000 nM
same,GI50,SN12C renal,567 nM
same,TGI,SN12C renal,> 100000 nM
C=C(C=O)[C@@H]1CC[C@]2(COC(C)=O)CC[C@]3(C)C(CC[C@@H]4[C@@]5(C)CC[C@H](OC(C)=O)C(C)(C)[C@@H]5CC[C@]43C)[C@@H]12 (some centres not stated),GI50,A549 NSCLC,> 100000 nM
same,TGI,A549 NSCLC,> 100000 nM
same,GI50,A498 renal,> 100000 nM
same,TGI,A498 renal,> 100000 nM
same,GI50,NCI-H460 lung,> 100000 nM
same,TGI,NCI-H460 lung,> 100000 nM
same,GI50,TK-10 renal,> 100000 nM
same,TGI,TK-10 renal,> 100000 nM
same,GI50,SK-OV-3 ovarian,> 100000 nM
same,TGI,SK-OV-3 ovarian,> 100000 nM
same,GI50,HOP-62 NSCLC,> 100000 nM
same,TGI,HOP-62 NSCLC,> 100000 nM

# From PubChem BioAssay (NCI)
